Here are results for 62 molecules from a melting point compilation (Tetko et al.; mined from patent text by program, amines drawn as free bases though some values may be those of a salt).

The molecule `O=C(O)c1cc2cc(-c3ccc(O)cc3)ccc2o1` returned a melting point of 297 to 300 °C.

As to `CC(=O)OCC1OC(n2c(Cl)nc3cc(Cl)c(Cl)cc32)C(O)C1O` (configuration not stated), the melting point fell in the range of 82 to 87 °C.

In the case of `CCN(CC)c1ccc([PH](=O)c2ccc(N(CC)CC)cc2)cc1`, the melting point turned out to be 129 °C. With `COc1ccc2[nH]c(C(=O)OC(C)(C)C)c(N)c2c1`, the melting point lay within 146 to 147 °C. `CC12CCC(=O)C(CSc3ccccc3)=C1CCC1C2CCC2(C)C1C=CC2(C)O` (configuration not stated) displayed a melting point of 147 °C. `Cc1nnc2c3ccc(Cl)cc3c(-c3ccccc3)nn12` returned a melting point of 236 to 238 °C. `COc1ccc(C(=O)NC2N=C(c3ccccc3F)c3ccccc3NC2=O)cc1OC` (racemic) yielded a melting point of 206 to 208 °C. For `O=C(Nc1ccc(Cl)cc1)c1ccc([N+](=O)[O-])cc1`, the melting point lay within 233 to 235 °C. Take `Cc1cccc(Oc2c(-c3ccc(S(C)(=O)=O)cc3)oc(C)cc2=O)c1`: the melting point came out at 162 °C. For `Cc1cc(Oc2cc(C)c([N+](=O)[O-])cn2)n[nH]1`, the melting point was in the range of 136 to 139 °C. `Cc1ccc(-c2nn(C(C)(C)C)c(N)c2C#N)cc1` came in with a melting point of 174 to 176 °C. In turn, `CC(C)N(C(=O)CCCCCC(=O)O)c1ccccc1` returned a melting point of 62 to 63 °C.

Molecule `CN(CCN1CCCCC1)S(=O)(=O)c1cc([N+](=O)[O-])ccc1Sc1cc(Cl)cc(Cl)c1` had a melting point of 113 to 114 °C. Next, `Cc1nc(-n2cc(CNc3ccccc3)nn2)sc1C(=O)NCc1ccccc1`: 159 to 162 °C; `CC(C)(C)OC(=O)N[C@@H](CC1CCCCC1)[C@@H]1CO1`: 58 to 59.5 °C. Under `COC(=O)c1cc(CBr)ccc1[N+](=O)[O-]` stands 55 to 56 °C. In turn, `O=C(O)CN1C(=O)C(=Cc2ccc([N+](=O)[O-])cc2)SC1=S` registered a melting point of 274 to 277 °C. As to `CCc1cc2c(cc1Oc1ccc(C(=O)O)cc1C)C(C)(C)CCC2(C)C`, the melting point lay in the range of 210 to 211 °C. Consider `CCCn1c(=O)c2[nH]c(-c3ccc(C(=O)N(CC)CC)o3)nc2n(CCC)c1=O`, for which the melting point lay within 247 to 250 °C. Turning to `COc1ccc([C@@H](O)[C@@H](N)Cc2ccc(C(F)(F)F)cc2)cc1` (racemic), the melting point was in the range of 116 to 117 °C. As for `c1cncc(OCCCCCCOc2cccnc2)c1`, the melting point stood at 85 °C. Next, `COc1cc2c(cc1OC)N(C)C(=O)CN=C2c1cccc(C=O)c1`: 175 to 178 °C; `CSc1ncnc(SC)c1NC(=O)CN1CCN(CCSc2nc3ccccc3o2)CC1`: 171 to 172 °C; `CC(O)(C(=O)Nc1ccc(S(=O)(=O)N2CCCCC2)cc1)C(F)(F)F` (configuration not stated): 164 to 166 °C. `COc1cc2c(cc1-c1c(C)nn(C)c1C)-c1c(-c3cccs3)c3c(n1CC2)C(=O)N(C(C)C)CCN(C(=O)C(C)C)C3`: the melting point was 232 to 235 °C. In turn, `Cc1ccc(NC(=O)c2ccc(O)c([N+](=O)[O-])c2)cc1C` came in with a melting point of 209 to 212 °C. Molecule `O=C1CC(c2ccccc2)Oc2cc(OCCn3ccnc3)ccc21` (configuration not stated) gave a melting point of 139 to 140 °C. Take `CCCCCCc1cc(SC)ccc1O`: the melting point is 42 to 44 °C.

Regarding `Cc1cccc2nnc(-c3ccccc3)cc12`, the melting point was 101 °C.

Molecule `CO[C@]1(c2cccc(OCc3ccc4c(ccc(=O)n4C)c3)c2)CCOC[C@H]1O` (racemic) registered a melting point of 62 to 66 °C. As for `CNC(=O)C1CCCN1S(=O)(=O)c1ccc(N2CCC(NC[C@H](O)COc3cccc4[nH]c(=O)[nH]c34)CC2)cc1` (some centres not stated), the melting point was in the range of 36 to 39 °C. Regarding `O=C1c2cc(O)ccc2N(Cc2ccccc2)C2=NCCN12`, the melting point lay within 225 to 227 °C.

As to `O=C(NC(=O)c1c(F)cccc1F)Nc1ccc(OC(F)(F)C(F)F)c(C(F)(F)F)c1`, the melting point was 182 to 185 °C.

`CCCc1c(OCC(O)CS(=O)(=O)c2ccc(CC(=O)OC)c(Cl)c2Cl)ccc(C(C)=O)c1O` (configuration not stated) yielded a melting point of 122 to 125 °C. Molecule `COC(=O)CNC(=O)c1cc2c(C(=O)CN(Cc3ccccc3)C(C)(C)C)ccc(OCc3ccccc3)c2[nH]1` had a melting point of 152 °C.

On to `COc1ccc(S(=O)(=O)Nc2nc(-c3cccc([N+](=O)[O-])c3)c(CN(C)C)s2)cc1OC`, for which the melting point came to 203 °C. On to `CN1CCc2c(Cl)ccc3c4c(n(c23)CC1)CCCC4`, for which the melting point lay in the range of 128 to 130 °C. The molecule `C=CC(O)(c1cccnc1)C(O)c1ccccc1Cl` (configuration not stated) displayed a melting point of 110 to 112 °C. `Cn1c(Cl)c(C=O)c2cccc(Cl)c21` gave a melting point of 185 to 187 °C. Molecule `COc1cccc2c(=O)c(C)c3sc4ccccc4nc-3c12` came in with a melting point of 170 to 171 °C. `CC#Cc1cn(C2CC(OC(C)=O)C(COC(C)=O)O2)c(=O)[nH]c1=O` (configuration not stated) registered a melting point of 148 to 149 °C. The molecule `COC(=O)c1ccccc1C=NC(C)(C(N)=O)C(C)C` (configuration not stated) registered a melting point of 79 to 80.5 °C.

Regarding `N#CCCCC(N)=NO`, the melting point was in the range of 99.5 to 101 °C.

For the molecule `CC(=O)Nc1ccc(S(=O)(=O)NCCCn2ccnc2)cc1`, the melting point is 178 to 180 °C. `CC(=O)OCCn1nc(C)c(-c2ccc3c(c2)NC(=O)CO3)c1-c1ccc(F)cc1`: the melting point turned out to be 160 °C. Molecule `CC(C)(C)OC(=O)N1CCc2c(n(CCO)c3c(Cl)ccc(Cl)c23)CC1` showed a melting point of 156 to 158 °C. In turn, `CC(C)CN1C(=O)[C@@H](CC(=O)O)N=C(c2ccccc2Cl)c2cc(Cl)ccc21` displayed a melting point of 175 to 178 °C.

Regarding `Cc1cc(Oc2ncc(C(F)(F)F)cc2Cl)n[nH]1`, the melting point fell in the range of 93 to 95 °C. For `CNc1ccc(Nc2nc(N3CCOCC3)nc(-n3c(C(F)F)nc4c(OC)cccc43)n2)cn1`, the melting point is 218 to 221 °C. Under `O=[N+]([O-])c1ccc2nc(-c3ccccc3)oc2n1` stands 219 to 220 °C; under `CC(O)C(CCCc1ccccc1)n1ncc2c(=O)[nH]c(Cc3ccc(Cl)c(Cl)c3)nc21` (configuration not stated), 161 °C; under `CCc1ccc(Cc2cn(C3OC(COC(=O)c4ccccc4)C(F)C(OC(=O)c4ccccc4)C3OC(=O)c3ccccc3)c3cccc(Cl)c23)cc1` (configuration not stated), 137 to 138 °C. `N#CC(=Cc1ccccc1F)C(O)C#N` (configuration not stated) yielded a melting point of 122 °C. Under `Cc1ccc(Oc2ccc(C(=O)N=C(N)N)cc2S(C)(=O)=O)cn1` stands 197 to 199 °C; under `COc1ccc(C=O)c(OCCO)c1`, 94 °C.

As for `CC(C)(C)OC(=O)C(=NOC(C)(C)C(=O)OCC[Si](C)(C)C)c1csc(N)n1`, the melting point amounted to 83 °C. Under `O=C(O)c1cccc(C(c2cc(F)ccc2F)S(=O)(=O)c2ccc(Cl)cc2)n1` (configuration not stated) stands 200 to 201 °C; under `CN(CC(N)=O)C1Cc2ccccc2C1`, 122 to 123 °C; under `O=C(O)C1Oc2ccc3c(-c4ccccc4)noc3c2O1` (configuration not stated), 187 to 190 °C. `C=C(c1c(C)n(CC)c2ccccc12)c1c(C)n(CC)c2ccccc12` showed a melting point of 179 to 182 °C. On to `COc1cc2c(cc1O)CCN(Cc1cccc(Oc3ccccc3)c1)C2`, for which the melting point lay within 139 to 140 °C. In the case of `Cc1ccc(-c2ccc(S(C)(=O)=O)cc2)n1-c1ccc(-c2ccsc2)cc1`, the melting point was in the range of 187 to 188 °C.

The melting point is the temperature, or range, at which the solid turns liquid.
